MIC data for 12 compounds are collected here from patent US12173018B2, “Penicillin-binding protein inhibitors” (priority 2018, dated 2024).

Structures are written as SMILES. Like-named read-outs stand apart in the source and are kept apart here.

One assay has as its system K. pneumoniae UMM. The assay can be described thus: microbe, parasite or virus in culture. It is filed as cell-based. The following applies: Klebsiella pneumoniae; K. pneumoniae UMM producing SHV-5 and KPC-2; read-out: MIC K. pneumoniae UMM. Put shortly:
(§1)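 Colonies from Mueller Hinton II agar were grown 3-5 hours at 37° C in cation-supplemented broth, adjusted by OD600, then added to 2-fold compound dilutions at 5×10^5 CFU/mL. After 16-20 hours at 37° C, MICs were scored visually.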

Another assay has as its system E. coli AG100A. The assay is described as follows: microbe, parasite or virus in culture. It counts as cell-based. The conditions noted are these: Escherichia coli, read-out: MIC E. coli AG100A. The method, boiled down: as §1
Another assay deals with E. coli D22. The assay is described as follows: microbe, parasite or virus in culture. The following applies: Escherichia coli; hyper-permeable E. coli D22, broth microdilution; read-out: MIC E. coli D22. It counts as cell-based. The method, boiled down: as §1
For orientation: Dilution methods test growth across graded concentrations, often in twofold steps.

For another assay, the system named is K. pneumoniae SI-117. The assay is described as follows: microbe, parasite or virus in culture. The following applies: Klebsiella pneumoniae, SI117, read-out: MIC K. pneumoniae SI-117. It is filed as cell-based. Put shortly: as §1
The next assay has as its system E. coli 901C. The assay can be described thus: microbe, parasite or virus in culture. It counts as cell-based. The conditions noted are these: Escherichia coli; hyper-permeable E. coli 901C, broth microdilution; read-out: MIC E. coli 901C. The method, boiled down:
as §1

A further assay has as its system E. coli ATCC 25922. The assay can be described thus: Broth microdilution MIC, E. coli ATCC 25922. It counts as cell-based. The following applies: Escherichia coli. Put shortly: as §1
Another assay relates to E. coli AG100. The assay can be described thus: Broth microdilution MIC, E. coli AG100 (wild-type parent). It counts as cell-based. The following applies: Escherichia coli; wild-type parent E. coli AG100, broth microdilution; read-out: MIC E. coli AG100. The method, boiled down: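 Broth microdilution in cation-supplemented Mueller-Hinton broth, 2-fold serial compound dilutions, inoculum 5×10^5 CFU/mL from 3-5 h log culture.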

The next assay has as its system K. pneumoniae 848844. The assay can be described thus: microbe, parasite or virus in culture. It is filed as cell-based, Klebsiella pneumoniae. The following applies: Klebsiella pneumoniae; K. pneumoniae 848844 producing SHV-11 and KPC-2; read-out: MIC K. pneumoniae 848844. Put shortly:
as §1

[1] abbreviates: ATCC25922, E. coli ATCC 25922, broth microdilution, read-out: MIC E. coli 25922.

For `CCN1CCN(C(=O)NC(C(=O)N[C@H]2Cc3cc(F)cc(C(=O)O)c3OB2O)c2csc(N)n2)C(=O)C1=O` (stereo partly drawn) [Example 16, (3R)-3-(2-(2-aminothiazol-4-yl)-2-(4-ethyl-2,3-dioxopiperazine-1-carboxamido)acetamido)-6-fluoro-2-hydroxy-3,4-dihydro-2H-benzo[e][1,2]oxaborinine-8-carboxylic acid], the MIC with K. pneumoniae UMM was in the range of 32 to 64 µg/mL; in the assay on E. coli AG100A it was 2 to 4 µg/mL; in the assay on E. coli D22, 8 to 16 µg/mL; with K. pneumoniae SI-117, 32 to 64 µg/mL; in the assay with E. coli 901C it was 0.5 to 1 µg/mL; in the assay on E. coli ATCC 25922 (setting [1]), 32 to 64 µg/mL. Further, the MIC in the assay with E. coli AG100 and with K. pneumoniae 848844 was 32 to 64 µg/mL each time.
With `CCN1CCN(C(=O)NC(C(=O)N[C@H]2Cc3cccc(C(=O)O)c3OB2O)c2ccc(O)cc2)C(=O)C1=O` (stereo partly drawn) [Example 27, (3R)-3-(2-(4-ethyl-2,3-dioxopiperazine-1-carboxamido)-2-(4-hydroxyphenyl)acetamido)-2-hydroxy-3,4-dihydro-2H-benzo[e][1,2]oxaborinine-8-carboxylic acid], the MIC in the assay with K. pneumoniae UMM was 32 to 64 µg/mL; with E. coli AG100A it was 2 to 4 µg/mL; in the assay with E. coli D22 it was 8 to 16 µg/mL; in the assay with K. pneumoniae SI-117, 32 to 64 µg/mL; with E. coli 901C it was 0.5 to 1 µg/mL; with E. coli ATCC 25922 (ATCC25922, read-out: MIC E. coli 25922) it was 32 to 64 µg/mL. The MIC was 32 to 64 µg/mL in the assay on E. coli AG100 and over 128 µg/mL with K. pneumoniae 848844.
On to `CCN1CCN(C(=O)NC(C(=O)N[C@H]2Cc3cccc(C(=O)O)c3OB2O)c2cnc(N)s2)C(=O)C1=O` (stereo partly drawn) [Example 51, (3R)-3-(2-(2-aminothiazol-5-yl)-2-(4-ethyl-2,3-dioxopiperazine-1-carboxamido)acetamido)-2-hydroxy-3,4-dihydro-2H-benzo[e][1,2]oxaborinine-8-carboxylic acid], for which the MIC in the assay on K. pneumoniae UMM was in the range of 32 to 64 µg/mL; in the assay with E. coli AG100A it was 8 to 16 µg/mL; with E. coli 901C, 0.5 to 1 µg/mL; in the assay with E. coli ATCC 25922 (setting [1]) it was 8 to 16 µg/mL; in the assay on E. coli AG100 it was 32 to 64 µg/mL.
As to `O=C(O)c1cccc2c1OB(O)[C@@H](NC(=O)C(NC(=O)N1CCN(CCF)C(=O)C1=O)c1ccc(O)c(O)c1Cl)C2` (stereo partly drawn) [Example 71, (3R)-3-(2-(2-chloro-3,4-dihydroxyphenyl)-2-(4-(2-fluoroethyl)-2,3-dioxopiperazine-1-carboxamido)acetamido)-2-hydroxy-3,4-dihydro-2H-benzo[e][1,2]oxaborinine-8-carboxylic acid], the MIC was 32 to 64 µg/mL in the assay with K. pneumoniae UMM; 2 to 4 µg/mL with E. coli AG100A; 0.5 to 1 µg/mL with E. coli 901C; 8 to 16 µg/mL in the assay on E. coli ATCC 25922 (setting [1]); 2 to 4 µg/mL with E. coli AG100.
Take `CCCN1CCN(C(=O)NC(C(=O)N[C@H]2Cc3cccc(C(=O)O)c3OB2O)c2ccc(O)c(O)c2Cl)C(=O)C1=O` (stereo partly drawn) [Example 82, (3R)-3-(2-(2-chloro-3,4-dihydroxyphenyl)-2-(2,3-dioxo-4-propylpiperazine-1-carboxamido)acetamido)-2-hydroxy-3,4-dihydro-2H-benzo[e][1,2]oxaborinine-8-carboxylic acid]: the MIC was in the range of 32 to 64 µg/mL in the assay on K. pneumoniae UMM; 2 to 4 µg/mL in the assay on E. coli AG100A; 2 to 4 µg/mL in the assay with E. coli D22; 32 to 64 µg/mL in the assay with K. pneumoniae SI-117; 2 to 4 µg/mL in the assay on E. coli 901C; 32 to 64 µg/mL with E. coli ATCC 25922 (setting [1]). Further, the MIC was 32 to 64 µg/mL in the assay on E. coli AG100 and over 128 µg/mL in the assay on K. pneumoniae 848844.
Take `CCN1CCN(C(=O)NC(C(=O)N[C@H]2Cc3cccc(C(=O)O)c3OB2O)c2cc(O)c(O)cc2F)C(=O)C1=O` (stereo partly drawn) [Example 90, (3R)-3-(2-(4-ethyl-2,3-dioxopiperazine-1-carboxamido)-2-(2-fluoro-4,5-dihydroxyphenyl)acetamido)-2-hydroxy-3,4-dihydro-2H-benzo[e][1,2]oxaborinine-8-carboxylic acid]: the MIC in the assay with K. pneumoniae UMM was 8 to 16 µg/mL; in the assay with E. coli AG100A, 2 to 4 µg/mL; in the assay on E. coli D22, 8 to 16 µg/mL; in the assay with K. pneumoniae SI-117, over 128 µg/mL; in the assay on E. coli 901C, 0.5 to 1 µg/mL; in the assay with E. coli ATCC 25922 (setting [1]), 8 to 16 µg/mL. For the same compound, the MIC in the assay on E. coli AG100 was 8 to 16 µg/mL; with K. pneumoniae 848844, 32 to 64 µg/mL.
On to `CCN1CCN(C(=O)NC(C(=O)N[C@H]2Cc3cccc(C(=O)O)c3OB2O)c2cccc(N)n2)C(=O)C1=O` (stereo partly drawn) [Example 104, (3R)-3-(2-(6-aminopyridin-2-yl)-2-(4-ethyl-2,3-dioxopiperazine-1-carboxamido)acetamido)-2-hydroxy-3,4-dihydro-2H-benzo[e][1,2]oxaborinine-8-carboxylic acid], for which the MIC was 32 to 64 µg/mL in the assay with K. pneumoniae UMM; 0.5 to 1 µg/mL in the assay with E. coli AG100A; 2 to 4 µg/mL with E. coli D22; 32 to 64 µg/mL in the assay with K. pneumoniae SI-117; under 0.25 µg/mL with E. coli 901C; 8 to 16 µg/mL in the assay with E. coli ATCC 25922 (setting [1]). The figures for the MIC in the assay with E. coli AG100 and with K. pneumoniae 848844 were 32 to 64 µg/mL and over 128 µg/mL, respectively.
On to `CCN1CCN(C(=O)NC(C(=O)N[C@H]2Cc3cccc(C(=O)[O-])c3OB2O)c2ccc[n+](CC(N)=O)c2)C(=O)C1=O` (stereo partly drawn) [Example 107, (3R)-3-(2-(1-(2-amino-2-oxoethyl)pyridin-1-ium-3-yl)-2-(4-ethyl-2,3-dioxopiperazine-1-carboxamido)acetamido)-2-hydroxy-3,4-dihydro-2H-benzo[e][1,2]oxaborinine-8-carboxylate], for which the MIC was 32 to 64 µg/mL in the assay on K. pneumoniae UMM; 8 to 16 µg/mL in the assay with E. coli AG100A; 32 to 64 µg/mL in the assay with E. coli D22; 32 to 64 µg/mL in the assay with K. pneumoniae SI-117; 8 to 16 µg/mL in the assay on E. coli 901C; 32 to 64 µg/mL with E. coli ATCC 25922 (setting [1]). The MIC in the assay with E. coli AG100 and in the assay on K. pneumoniae 848844 was 32 to 64 µg/mL each time.
Consider `CCN1CCN(C(=O)N[C@@H](C(=O)N[C@H]2Cc3ccc(F)c(C(=O)O)c3OB2O)[C@@H](C)O)C(=O)C1=O` [Example 110, (R)-3-((2R,3R)-2-(4-ethyl-2,3-dioxopiperazine-1-carboxamido)-3-hydroxybutanamido)-7-fluoro-2-hydroxy-3,4-dihydro-2H-benzo[e][1,2]oxaborinine-8-carboxylic acid], for which the MIC in the assay on K. pneumoniae UMM fell in the range of 8 to 16 µg/mL; in the assay with E. coli AG100A it was 8 to 16 µg/mL; with E. coli D22, 8 to 16 µg/mL; in the assay with K. pneumoniae SI-117 it was 8 to 16 µg/mL; in the assay on E. coli 901C it was 2 to 4 µg/mL; in the assay on E. coli ATCC 25922 (setting [1]), 8 to 16 µg/mL. The figures for the MIC in the assay with E. coli AG100 and in the assay with K. pneumoniae 848844 were 8 to 16 µg/mL and 32 to 64 µg/mL, respectively.
`CCN1CCN(C(=O)NC(C(=O)N[C@H]2Cc3cccc(C(=O)O)c3OB2O)c2cccs2)C(=O)C1=O` (stereo partly drawn) [Example 115, (3R)-3-(2-(4-ethyl-2,3-dioxopiperazine-1-carboxamido)-2-(thiophen-2-yl)acetamido)-2-hydroxy-3,4-dihydro-2H-benzo[e][1,2]oxaborinine-8-carboxylic acid]: the MIC was 32 to 64 µg/mL in the assay with K. pneumoniae UMM; 2 to 4 µg/mL in the assay on E. coli AG100A; 8 to 16 µg/mL in the assay on E. coli D22; 32 to 64 µg/mL in the assay with K. pneumoniae SI-117; under 0.25 µg/mL in the assay with E. coli 901C; 32 to 64 µg/mL in the assay with E. coli ATCC 25922 (setting [1]). Besides, the MIC with E. coli AG100 is 32 to 64 µg/mL; with K. pneumoniae 848844, over 128 µg/mL.
Take `CCN1CCN(C(=O)NC(C(=O)N[C@H]2Cc3cccc(C(=O)O)c3OB2O)c2cccc(O)n2)C(=O)C1=O` (stereo partly drawn) [Example 117, (3R)-3-(2-(4-ethyl-2,3-dioxopiperazine-1-carboxamido)-2-(6-hydroxypyridin-2-yl)acetamido)-2-hydroxy-3,4-dihydro-2H-benzo[e][1,2]oxaborinine-8-carboxylic acid]: the MIC in the assay with K. pneumoniae UMM was 32 to 64 µg/mL; with E. coli AG100A, 2 to 4 µg/mL; with E. coli D22 it was 8 to 16 µg/mL; in the assay on K. pneumoniae SI-117 it was over 128 µg/mL; with E. coli 901C, 0.5 to 1 µg/mL; with E. coli ATCC 25922 (setting [1]), 32 to 64 µg/mL. Also, the MIC in the assay with E. coli AG100 was over 128 µg/mL; with K. pneumoniae 848844, 32 to 64 µg/mL.
Consider `CCN1CCN(C(=O)NC(C(=O)N[C@H]2Cc3cccc(C(=O)O)c3OB2O)c2cnc(O)cn2)C(=O)C1=O` (stereo partly drawn) [Example 121, (3R)-3-(2-(4-ethyl-2,3-dioxopiperazine-1-carboxamido)-2-(5-hydroxypyrazin-2-yl)acetamido)-2-hydroxy-3,4-dihydro-2H-benzo[e][1,2]oxaborinine-8-carboxylic acid], for which the MIC with K. pneumoniae UMM was 8 to 16 µg/mL; with E. coli AG100A it was 2 to 4 µg/mL; in the assay with E. coli D22, 8 to 16 µg/mL; with K. pneumoniae SI-117, 32 to 64 µg/mL; in the assay with E. coli 901C it was 0.5 to 1 µg/mL; in the assay on E. coli ATCC 25922 (setting [1]), 32 to 64 µg/mL. The MIC in the assay on E. coli AG100 was 32 to 64 µg/mL; in the assay with K. pneumoniae 848844, over 128 µg/mL.
